Values quoted from earlier work in US20200214978A1, “Functional chewing gum comprising phytonutrients and adaptogenic herbs” (BrilliantIQ AB, priority 2017, published 2020).

How the values were obtained:
[1] = oral administration
[2] = supplementation, group of healthy adults

Compound | beta waves [1] | delta waves [1] | increase the speed of calculations done in short-term memory [2] [%]
C[N+](C)(C)CCOP(=O)([O-])OC[C@H](O)CO [alpha-GPC, L-Alpha glycerolphosphorylcholine] | significant increase | significant decrease | 
Phosphatidylserine |  |  | 20
